Patent US5171882A, “Leukotriene antagonists” (Eli Lilly and Company, priority 1990, dated 1992)
Like-named read-outs stand apart in the source and are kept apart here.

Experiments:
[1] = biological target: T1, specific receptor on the membrane of human neutrophils (leukotriene B4) (Homo sapiens, UniProt Q15722); assay: Inhibition of Binding of ^3 H-LTB4 to Peripheral Human Neutrophils; settings: read-out: LTB4 Binding Inhibition
T1 construct: Freshly-prepared buffy coat layers from two individuals were obtained from a local blood donor center; endogenous in cells; host or cells: intact human peripheral blood neutrophils from buffy coats of two donors
T1 sequence (Q15722 whole entry): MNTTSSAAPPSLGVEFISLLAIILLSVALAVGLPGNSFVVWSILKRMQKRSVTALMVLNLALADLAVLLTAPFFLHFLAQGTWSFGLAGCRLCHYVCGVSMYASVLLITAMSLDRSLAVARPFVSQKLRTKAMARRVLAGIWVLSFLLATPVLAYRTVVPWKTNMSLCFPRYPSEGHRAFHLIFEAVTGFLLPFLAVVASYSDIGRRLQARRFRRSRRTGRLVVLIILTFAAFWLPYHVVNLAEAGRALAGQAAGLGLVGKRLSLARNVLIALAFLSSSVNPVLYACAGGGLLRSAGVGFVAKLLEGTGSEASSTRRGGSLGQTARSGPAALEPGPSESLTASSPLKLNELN
Protocol: Cells used in the assay were isolated by standard techniques of centrifugation on Ficoll-Hypaque, dextran 70 sedimentation and hypotonic lysis. The following procedure was used. Freshly-prepared buffy coat layers from two individuals were obtained from a local blood donor center. The cells were mixed and diluted to 484 ml with phosphate buffered saline containing heparin (10 units/ml) and heat-inactivated calf serum (5%). This was divided into 20 ml aliquots and the aliquots layered on top of Ficoll-Paque (12 ml). The material was then centrifuged at 500 g for 40 minutes at room temperature. The resulting upper layer of platelets and mononuclear cells was discarded. The lower layer containing erythrocytes and neutrophils was retained. Buffer was added (1 ml per 4 ml of lower layer) and the suspension mixed. For each milliliter of this mixture, 0.33 ml of 6% Macrodex was added. After stirring, the cells were allowed to sediment for 1 hour at 37° C. The resulting erythrocyte pellet was discarded and the neutrophil enriched supernatant fluid centrifuged at 500 g for 10 minutes at 4° C. Erythrocytes still present in this cell pellet were lysed by incubating the cells with 5-8 ml ice-cold distilled water for 30-45 seconds. Subsequently, the volume was made up to 50 ml by addition of ice-cold buffer and the cells resuspended. The suspension was then centrifuged at 300 g for 10 minutes at 4° C. The cells were finally resuspended at a cell density of 2×10^7 cells/ml in the assay buffer This buffer consisted of Hanks' balanced salt solution and 0.1% ovalbumin (pH 7.3).
The amount of bound ^3 H-LTB4 was then measured and compared with the amount bound in the absence of test compound. The assay was carried out in microcentrifuge tubes by adding first 10 μl test compound dissolved in DMSO, followed by adding 20 μl ^3 H-LTB4 diluted in assay buffer, and finally adding 500 μl of the cell suspension. At the end of the 10 minutes incubation, 300 μl of a mixture of dibutyl and dinonyl phthalate (7:2) were added and the tubes centrifuged for 2 minutes in a microcentrifuge. The radioactivity bound to the cell pellet was measured by scintillation spectroscopy. Appropriate corrections for nonspecific bonding of ^3 H-LTB4 were made.

[2] = biological target: T2, LTD4 receptors (Cavia porcellus, UniProt Q2NNR5); assay: Antagonism of LTD4 (guinea pig ileum and trachea, pA2); settings: *Estimated; negative log of KB; antagonist 30 minute incubation
T2 construct: A section of terminal ileum was removed, the lumen cleaned, and the tissue divided into 2.5 cm segments; from tissue; host or cells: ileum and trachea of guinea pig (ileum: male Hartley)
T2 sequence (Q2NNR5 1-340): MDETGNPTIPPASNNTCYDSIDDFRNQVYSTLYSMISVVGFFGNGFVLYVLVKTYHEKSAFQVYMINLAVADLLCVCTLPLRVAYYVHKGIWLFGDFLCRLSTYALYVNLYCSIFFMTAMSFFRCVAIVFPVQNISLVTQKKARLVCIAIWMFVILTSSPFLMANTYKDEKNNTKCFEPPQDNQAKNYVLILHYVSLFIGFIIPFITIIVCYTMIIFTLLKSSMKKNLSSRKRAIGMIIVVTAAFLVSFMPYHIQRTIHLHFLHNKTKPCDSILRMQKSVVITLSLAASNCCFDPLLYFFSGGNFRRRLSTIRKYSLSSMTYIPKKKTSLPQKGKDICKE
Protocol: Male, Hartley guinea pigs weighing 200-450 grams were killed by decapitation. A section of terminal ileum was removed, the lumen cleaned, and the tissue divided into 2.5 cm segments. The ilea were mounted in 10 ml tissue baths containing Krebs-bicarbonate solution of the following composition in mmoles/liter: KCl, 4.6; CaCl2 ·2H2 O, 1.2; KH2 PO4, 1.2; MgSO4 ·7H2O, 1.2; NaCl, 118.2; NaHCO3, 24.8; and dextrose, 10.0. The bath fluid was maintained at 37° C. and aerated with 95 percent oxygen and 5 percent CO2 In addition, the buffer contained 1×10^-6 M atropine to reduce ileal spontaneous activity. Isometric measurements were made with a Grass FT03C. force-displacement transducer and recorded on a Grass polygraph as change in grams of force. A passive force of 0.5 g was applied to the tissues. After an appropriate equilibration period, single submaximal control responses to pure LTD4 were obtained. Following a five minute exposure of the ileum to an experimental drug, the control concentration of LTD4 was added to the tissue bath. The response of the ileum to LTD4 in the presence of the drug was compared to the response in the absence of the drug.
A more detailed analysis of LTD4 antagonism was then made. In these experiments, cumulative concentration-response curves were obtained to LTD4 in guinea pig ileum and trachea. This was followed by a 30 minute incubation with various concentrations of the experimental drug. The concentration response curve to LTD4 was then repeated in the presence of the antagonist. Only one concentration of antagonist was used on a single tissue. KB values were calculated by the method of Furchgott [Ann. N.Y. Acad. Sci., 139, 553 (1967)] using the following equation. [formula]
Dose ratio refers to the concentration of agonist required to elicit 50 percent of the maximal response ED50) in the presence of the antagonist divided by the ED50 in the absence of the antagonist.

[3] = test system: LTB4 induced cell aggregation (neutrophils); assay: LTB4 Induced Aggregation Assay (neutrophils); type: cell-based, guinea pig; settings: Cavia porcellus, Neutrophil; for inhibition at 10 µM: drug concentration 10^-5 M; for inhibition at 1 µM: drug concentration 10^-6 M; for inhibition at 0.1 µM: drug concentration 10^-7 M
Protocol: Neutrophils were elicited by intraperitoneally injecting 20 ml of Dulbecco's calcium and magnesium deficient phosphate buffered saline (PBS) containing 2% oyster glycogen into each of two male Hartley guinea pigs. Eighteen hours later, cells accumulating in the peritoneal cavity were harvested by washing the peritoneum with approximately 100 ml of PBS containing 10 units/ml of heparin. The cells were centrifuged at 200 g for 8 min. and the supernatant fluid discarded. Erythrocytes present in the pellet were lyzed by vigorous agitation of the cells in 9 ml of ice-cold distilled water for approximately 30 seconds. Physiological osmolarity was restored by adding 1.5 ml of 0.6 M KCl. Twelve milliliters of PBS were added and the resuspended cells centrifuged at 200 g for 8 min. at 4°. The pellet was resuspended in 5 ml PBS. The cell concentration was determined and additional buffer added to make the concentration […]; cells per ml.
The aggregation assay was carried out by measuring the amount of LTB4 induced cell aggregation with a Payton single channel aggregometer, model 300B. The apparatus was calibrated by placing a cuvette containing the cell suspension in it and adjusting the zero knob so that the recorder pen rested at 1 mV. A cuvette containing 20% less cells was then inserted into the aggregometer and the output knob adjusted so that the recorder pen rested at 9 mV. With these settings an 8 mV change causes the recorder pen to move 200 mm. When conducting an assay, 0.5 ml of cell suspension (5×10^6 cells) was added to each cuvette. Five microliters of a solution of test compound were then added. Most compounds were initially dissolved in DMSO at 1×10^-2 M and then diluted appropriately with PBS so that the test compound concentration was 1×10^-5 to 1×10^-7 M and the test DMSO concentration was 0.1% or less. A few of the more water insoluble compounds were first dissolved in DMSO at 1 to 6×10^-3 M and then diluted appropriately with PBS. The test concentration of DMSO was never higher than 1%. After a 2 minute equilibration period of cells and test compound, 5 μl of a solution containing CaCl2 (100 mM) and MgCl2 (50 mM) were added. One minute later, 5 μ l of PBS containing LTB4 (3×10^-7 M) were added. The change occurring in the amount of light transmitted during the subsequent minute was measured. […] During a typical experiment, several measurements of the amount of aggregation induced by LTB4 were made and an average value determined. The effect of a test compound on this aggregation was determined by the following formula: [formula]

[4] = drug concentration 10^-5 M, 0.1-0.2 nM ^3 H-LTB4, 10 minutes at 4° C
[5] = drug concentration 10^-6 M, 0.1-0.2 nM ^3 H-LTB4, 10 minutes at 4° C
[6] = drug concentration 10^-7 M, 0.1-0.2 nM ^3 H-LTB4, 10 minutes at 4° C

inhibition at 10 µM [1, 4] [%]	inhibition at 1 µM [1, 5] [%]	Kb [2] [µM]	inhibition at 0.1 µM [1, 6] [%]	SMILES	inhibition at 0.1 µM [1] [%]	inhibition at 1 µM [1] [%]	inhibition at 10 µM [1] [%]	inhibition at 10 µM [3] [%]	inhibition at 1 µM [3] [%]	inhibition at 0.1 µM [3] [%]
74	23	1.41	–	CCCCCCCCCCOc1ccc(C(=O)c2cccc(C(=O)O)c2)c(CC(=O)O)c1 [Example 21, 2-(3-Carboxybenzoyl)-5-(decyloxy)benzeneacetic acid]	–	–	–	–	–	–
–	–	0.575	–	CCOC(=O)CCc1cc(C(=O)c2cccc(C(=O)OCC)c2)ccc1OCCCCCCc1ccc(Cl)cc1 [Example 66, 2-{[6-(4-Chlorophenyl)hexyl]oxy}-5-[3-(ethoxycarbonyl)benzoyl]benzenepropanoic acid, ethyl ester]	–	–	–	–	–	–
–	–	1.91	–	CCCCCCCCCCOc1ccc(C(=O)Cc2ccccc2C(=O)O)cc1CCC(=O)O [Example 34, 5-[(2-Carboxyphenyl)acetyl]-2-(decyloxy)benzenepropanoic acid]	–	–	–	–	–	–
–	–	–	–	COc1ccc(C=CCCCCOc2ccc(C(=O)c3cccc(C(=O)O)c3)cc2CCC(=O)O)cc1 [Example 79, 5-(3-Carboxybenzoyl)-2-{[6-(4-methoxyphenyl)-5-hexenyl]oxy}benzenepropanoic acid]	92	97	100	92	87	46
10	-10	7.94	–	CCCCCCOc1ccc(C(O)c2cccc(C(=O)O)c2)cc1CC(=O)O (stereo not drawn) [Example 48, 5-[(3--Carboxyphenyl)hydroxymethyl]-2-(hexyloxy)benzeneacetic acid]	–	–	–	–	–	–
98	96	–	90	C[S+]([O-])c1ccc(C=CCCCCOc2ccc(C(=O)c3cccc(C(=O)O)c3)cc2CCC(=O)O)cc1 (stereo not drawn) [Example 90, 5-(3-Carboxybenzoyl)-2-{[6-(4-methylsulfinylphenyl)-5-hexenyl]oxy}benzenepropanoic acid]	–	–	–	85	79	9
91	55	–	13	CCCCCCCCCCOc1ccc(C(O)c2cccc(C(=O)O)c2)cc1CCC(=O)O (stereo not drawn) [Example 46, 5-[(3--Carboxyphenyl)hydroxymethyl]-2-(decyloxy)benzenepropanoic acid]	–	–	–	–	73	7
71	37	–	-3	C=C(c1cccc(C(=O)O)c1)c1ccc(OCCCCCCCCCC)c(CCC(=O)O)c1 [Example 54, 5-[1-(3-Carboxyphenyl)ethenyl]-2-(decyloxy)benzenepropanoic acid]	–	–	–	–	88	12
106	91	–	42	O=C(O)CCc1cc(C(=O)c2cccc(C(=O)O)c2)ccc1OCCCCCCc1ccc(Cl)cc1 [Example 81, 2-{[6-(4-Chlorophenyl)hexyl]oxy}-5-(3-carboxybenzoyl)benzenepropanoic acid]	–	–	–	76	63	8
59	2	–	–	CCCCCCCCCCOc1ccc(C(O)c2ccc(C(=O)O)cc2)cc1CC(=O)O (stereo not drawn) [Example 47, 5-[(4-Carboxyphenyl)hydroxymethyl]-2-(decyloxy)benzeneacetic acid]	–	–	–	80	50	2
–	–	0.631	–	CCCCCCCCCCOc1ccc(C(=O)c2cccc(Cc3nnn[nH]3)c2)cc1CCC(=O)O [Example 25, 2-(Decyloxy)-5-[3-(1H-tetrazol-5-ylmethyl)benzoyl]benzenepropanoic acid]	–	–	–	–	–	–
87	52	–	4	CCCCCCCCCCOc1ccc(C(=O)c2cccc(C(=O)O)c2)cc1CCCC(=O)O [Example 23, 5-(3-Carboxybenzoyl)-2-(decyloxy)benzenebutanoic acid]	–	–	–	92	46	–
–	–	0.158	–	CCCCCCCCCCOc1ccc(C(=O)c2cccc(C(=O)OCC)c2)cc1CCCC(=O)OCC [Example 7, 2-(Decyloxy)-5-[3-(ethoxycarbonyl)benzoyl]benzenebutanoic acid, ethyl ester]	–	–	–	–	–	–

SMILES	inhibition at 10 µM [1, 4] [%]	inhibition at 1 µM [1, 5] [%]	Kb [2] [µM]	inhibition at 0.1 µM [1, 6] [%]	inhibition at 0.1 µM [1] [%]	inhibition at 1 µM [1] [%]	inhibition at 10 µM [1] [%]	inhibition at 10 µM [3] [%]	inhibition at 1 µM [3] [%]	inhibition at 0.1 µM [3] [%]
O=C(O)CCc1cc(C(=O)c2cccc(C(=O)O)c2)ccc1OCCCCCCc1ccccc1 [Example 75, 5-(3-Carboxybenzoyl)-2-[6-(phenylhexyl)-oxy]benzenepropanoic acid]	–	82	–	36	–	–	97	93	69	15
